Experimental data reported in patent publication US12030888B2, “Himastatin derivatives, and processes of preparation thereof, and uses thereof” (priority 2021, dated 2024).
In brackets after ≈: the same amount, converted by molar mass. Read-outs that look alike come from different tables or passages of the source.

How the values were obtained:
[1] = tested on: Methicillin-Resistant Staphylococcus aureus; type: cell-based
Protocol: (§1) Bacillus subtilis subsp. spizizenii (ATCC 6633) and Streptomyces himastatinicus (ATCC 53653) were obtained from the American Type Culture Collection (ATCC). Methicillin-resistant and methicillin-susceptible Staphylococcus aureus (Newman), and vancomycin-resistant (V583) and vancomycin-susceptible (T7) Enterococcus faecalis were obtained from the lab of Dr. Roby P. Bhattacharyya (Massachusetts General Hospital).^6 B. subtilis was grown in brain-heart infusion (BHI) medium at 37° C., S. himastatinicus was grown in tryptone-yeast extract broth (ISP medium 2) at 28° C., E. faecalis was grown in Todd-Hewitt broth, and all other organisms were grown in lysogeny broth (LB) medium at 37° C.
(§2) Minimum inhibitory concentration (MIC) was determined using the broth microdilution method. 20-fold stocks of compound in DMSO were diluted 10-fold in MHB medium and 100 μL of each were added to the first well of a 96-well plate. 50 μL of the first well was then serially diluted through 50 μL MHB medium in wells 2-11. To prepare the bacterial culture, an overnight culture was diluted in MHB until the turbidity matched that of McFarland standard 0.5. Then, the culture was diluted 1:100 and added to wells 1-11, resulting in 2-fold dilutions of antibiotic beginning at 64 μg/mL and a final inoculum of 5×10^5 cfu/mL. 100 μL of MHB medium was added to well 12 as a sterility control, and a row containing no antibiotic was used as a growth control. The plate was incubated at the organism's respective growth temperature overnight (B. subtilis) or 72 h (S. himastatinicus) and the MIC was determined using OD600.
(§3) Minimum inhibitory concentration (MIC) was determined using the broth microdilution method.^7 20-fold (1.28 mg/mL) stocks of compound in dimethylsulfoxide, stored as frozen (−80° C.) 30-μL aliquots, were diluted 10-fold in Mueller Hinton broth (MHB) and a 100-μL sample of each was added to the first well of a 96-well plate. A 50-μL sample of the first well was then serially diluted two-fold through 50-μL NMB medium in wells 2-11. A bacterial culture was prepared from a frozen (−80° C.) stock in the organism's respective growth medium and grown overnight. The culture was then diluted in MHB until the turbidity matched that of McFarland standard 0.5 by measuring the optical density at 600 nm (1×10^8 cfu/mL). Then, the culture was diluted 1:100 and a 50-μL aliquot was added to wells 1-11, resulting in 2-fold dilutions of antibiotic from 64 μg/mL down to 0.0625 μg/mL and a final inoculum of 5×10^5 cfu/mL. A 100-μL aliquot of MHB medium was added to well 12 as a sterility control, and a row containing no antibiotic was used as a growth control. The plate was incubated at the organism's respective growth temperature overnight or 72 h (S. himastatinicus). The MIC was determined by observing the well density by eye and, with the exception of S. himastatinicus which grows in solid colonies in media, was confirmed by measuring the optical density of each well at 600 nm. At least two assays were conducted for each organism on identical lots of compound. No degradation of compound stocks in dimethylsulfoxide was observed by LC-MS analysis after being subjected to multiple freeze-thaw cycles.

[2] = tested on: Vancomycin-Resistant Enterococcus faecalis (V583); type: cell-based
Protocol: as §1, §2, §3

[3] = tested on: Bacillus subtilis (ATCC 6633); type: cell-based
Protocol: as §1, §2, §3

[4] = tested on: Streptomyces himastatinicus (ATCC 53653); type: cell-based
Protocol: as §1, §2, §3

B. subtilis (ATCC 6633) = test: Microscopy of membrane morphology at sub-lethal concentration, FM 4-64 stain; type: cell-based, Bacillus subtilis; conditions: sub-lethal concentration 0.25 μg/mL, 3 h at 37 °C
Protocol: B. subtilis (ATCC 6633) was used for all microscopy experiments. For time-course studies at lethal concentration, culture containing 1 μg/mL FM 4-64 was combined with medium containing himastatin before being immediately added to a 1% agarose pad containing 0.5 μg/mL sytox green (Invitrogen). One section of the agarose pad was then imaged every 5 minutes to monitor cell death. For studies of morphological changes in sub-lethal concentrations, culture was incubated with 0.25 μg/mL (−) or (+)-himastatin for 3 h at 37 C, before being combined with FM 4-64 and added to an agarose pad containing sytox green. Images were collected on a Zeiss AxioPlan2 upright microscope using phase-contrast and equipped with a Hamamatsu Orca-ER cooled CCD camera using standard filter sets for GFP (to visualize SYTOX green; excitation 470/40 nm and emission 525/50 nm), TxRED (to visualize FM 4-64; excitation 565/40 and emission 620/60 nm), and DIC (for phase-contrast). Additional imaged were collected with an RPI Spinning Disk Confocal microscope equipped with a Hamamatsu Orca-ER cooled CCD camera using standard filter sets for GFP (488 nm laser, emission 525/50 nm), RFP (561 nm laser, emission 605/70 nm), and brightfield.
B. subtilis (ATCC 6633) in Mueller Hinton broth (NMB) was used for all microscopy experiments. For time-course studies with natural himastatin at lethal concentration, a bacterial culture matching the optical density of McFarland standard 0.5 (1×10^8 cfu/mL) was supplemented with 1 μg/mL FM 4-64 before being combined with medium containing (−)- or (+)-himastatin (1) (2 μg/mL) immediately before imaging on a 1% agarose pad containing 0.5 μg/mL SYTOX Green (Invitrogen). One section of the agarose pad was then imaged every 5 min to monitor cell death. For studies of morphological changes in bacteria treated with sub-lethal concentrations, culture was incubated with 0.25 μg/mL (−)- or (+)-himastatin (1) for 3 h at 37° C., before being supplemented with 1 μg/mL FM 4-64 and added immediately to an agarose pad. […]

[5] = tested on: Vancomycin-Sensitive E. faecalis (T7); type: cell-based, Enterococcus faecalis
Protocol: as §1, §2, §3

[6] = tested on: Methicillin-Sensitive S. aureus (Newman); type: cell-based, Staphylococcus aureus
Protocol: as §1, §2, §3

Gram-positive bacteria = type: cell-based; conditions: for antibiotic activity (in words): relative to (−)-himastatin (1) where a derivative
Protocol: as §1, §2, §3

[7] = early investigation (ref. vii); cited from earlier work

CC(C)C[C@H]1NC(=O)[C@@H]2C[C@H](O)CNN2C(=O)[C@@H](C(C)C)OC(=O)[C@H](C(C)C)NC(=O)[C@H]2C[C@]3(O)c4cc(-c5ccc6c(c5)[C@@]5(O)C[C@@H]7C(=O)N[C@@H](C(C)C)C(=O)O[C@H](C(C)C)C(=O)N8NC[C@@H](O)C[C@H]8C(=O)N[C@H](CC(C)C)C(=O)N[C@@H]([C@@H](C)O)C(=O)N7[C@H]5N6)ccc4N[C@@H]3N2C(=O)[C@H]([C@@H](C)O)NC1=O [(+)-1, Ent-Himastatin]
MIC (μg/mL) MRSA ([1]; broth microdilution, Methicillin-Resistant Staphylococcus aureus, n ≥ 2): 4 µg/mL (≈ 2.69 µM)
MIC (μg/mL) VRE faecalis ([2]; broth microdilution, Vancomycin-Resistant Enterococcus faecalis (V583), n ≥ 2): 2 µg/mL (≈ 1.35 µM)
MIC (μg/mL) B. subtilis ([3]; broth microdilution, Bacillus subtilis (ATCC 6633), growth inhibition determined by eye, n ≥ 2): 0.5 µg/mL (≈ 0.337 µM)
activity against the producing organism Streptomyces himastatinicus (in words) [4]: completely evade its own resistance mechanism and inhibit its growth
MIC (μg/mL) S. himastatinicus ([4]; broth microdilution, Streptomyces himastatinicus (ATCC 53653), 72 h, n ≥ 2): 0.5 µg/mL (≈ 0.337 µM)
fold more active in inhibiting the growth of Streptomyces himastatinicus compared to (−)-himastatin (1) ([4]; relative to (−)-himastatin (1)): 4-8 fold
membrane morphology (FM 4-64) (B. subtilis (ATCC 6633); listed as (+)-ent-himastatin): identical
membrane morphology (FM 4-64) (B. subtilis (ATCC 6633); listed as ent-(+)-himastatin): visual membrane defects
MIC (μg/mL) VSE faecalis ([5]; broth microdilution, Vancomycin-Sensitive E. faecalis (T7), n ≥ 2): 1 µg/mL (≈ 0.673 µM)
MIC (μg/mL) MSSA ([6]; broth microdilution, Methicillin-Sensitive S. aureus (Newman), n ≥ 2): 2 µg/mL (≈ 1.35 µM)

CC(C)C[C@@H]1NC(=O)[C@H]2C[C@@H](O)CNN2C(=O)[C@H](C(C)C)OC(=O)[C@@H](C(C)C)NC(=O)[C@@H]2C[C@@]3(O)c4cc(-c5ccc6c(c5)[C@]5(O)C[C@H]7C(=O)N[C@H](C(C)C)C(=O)O[C@@H](C(C)C)C(=O)N8NC[C@H](O)C[C@@H]8C(=O)N[C@@H](CC(C)C)C(=O)N[C@H]([C@H](C)O)C(=O)N7[C@@H]5N6)ccc4N[C@H]3N2C(=O)[C@@H]([C@H](C)O)NC1=O [(−)-1, (−)-Himastatin, reference compound]
MIC in Bacillus subtilis ([3]; text and figure legend): 1 µg/mL (≈ 0.673 µM)
MIC values (Gram-positive bacteria): 1 to 2 µg/mL
antibiotic activity (in words) (Gram-positive bacteria): potent antibiotic activity
antibiotic activity in the presence of sodium salts of phospholipids and fatty acids [7]: reduced
membrane morphology (FM 4-64) (B. subtilis (ATCC 6633)): visual membrane defects

CC(C)[C@@H]1OC(=O)[C@@H](C(C)C)NC(=O)[C@@H]2C[C@@]3(O)c4cc(-c5ccc6c(c5)[C@]5(O)C[C@H]7C(=O)N[C@H](C(C)C)C(=O)O[C@@H](C(C)C)C(=O)N8NC[C@H](O)C[C@@H]8C(=O)N[C@@H](CCCCN=[N+]=[N-])C(=O)N[C@H]([C@H](C)O)C(=O)N7[C@@H]5N6)ccc4N[C@H]3N2C(=O)[C@@H]([C@H](C)O)NC(=O)[C@H](CCCCN=[N+]=[N-])NC(=O)[C@H]2C[C@@H](O)CNN2C1=O [(−)-32, Himastatin ε-Azidolysine Derivative]
MIC (μg/mL) MRSA ([1]; Methicillin-Resistant): 2 µg/mL (≈ 1.28 µM)
MIC (μg/mL) VRE faecalis ([2]; Vancomycin-Resistant (V583)): 1 µg/mL (≈ 0.638 µM)
MIC (μg/mL) B. subtilis ([3]; ATCC 6633): 2 µg/mL (≈ 1.28 µM)
antibiotic activity (in words) (Gram-positive bacteria): essentially no impact on the antibiotic activity
MIC (μg/mL) S. himastatinicus ([4]; ATCC 53653, 72 h): 8 µg/mL (≈ 5.1 µM)
MIC (μg/mL) VSE faecalis ([5]; Vancomycin-Sensitive (T7)): 0.5 µg/mL (≈ 0.319 µM)
MIC (μg/mL) MSSA ([6]; Newman): 1 µg/mL (≈ 0.638 µM)
